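Five concentrations, 48 hours, 96-well plates. TGI: total growth inhibition.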
Tests used:
Assay in all cases: NCI tumour cell line growth inhibition, 48 h
786-0 renal = test system: 786-0 renal
A498 renal = test system: A498 renal
A549 NSCLC = test system: A549 NSCLC
ACHN renal = test system: ACHN renal
CAKI-1 renal = test system: CAKI-1 renal
CCRF-CEM leukemia = test system: CCRF-CEM leukemia
DLD-1 colon = test system: DLD-1 colon
DMS 114 small cell lung = test system: DMS 114 small cell lung
DMS 273 small cell lung = test system: DMS 273 small cell lung
EKVX NSCLC = test system: EKVX NSCLC
HCC-2998 colon = test system: HCC-2998 colon
HCT-15 colon = test system: HCT-15 colon
HL-60(TB) leukemia = test system: HL-60(TB) leukemia
HOP-18 NSCLC = test system: HOP-18 NSCLC
HOP-62 NSCLC = test system: HOP-62 NSCLC
HOP-92 NSCLC = test system: HOP-92 NSCLC
HT29 colon = test system: HT29 colon
IGROV1 ovarian = test system: IGROV1 ovarian
K-562 leukemia = test system: K-562 leukemia
KM12 colon = test system: KM12 colon
KM20L2 colon = test system: KM20L2 colon
LXFL 529 NSCLC = test system: LXFL 529 NSCLC
M14 melanoma = test system: M14 melanoma
M19-MEL melanoma = test system: M19-MEL melanoma
MOLT-4 leukemia = test system: MOLT-4 leukemia
NCI-H226 lung = test system: NCI-H226 lung
NCI-H23 lung = test system: NCI-H23 lung
NCI-H460 lung = test system: NCI-H460 lung
NCI-H522 lung = test system: NCI-H522 lung
OVCAR-4 ovarian = test system: OVCAR-4 ovarian
OVCAR-5 ovarian = test system: OVCAR-5 ovarian
OVCAR-8 ovarian = test system: OVCAR-8 ovarian
RPMI-8226 leukemia = test system: RPMI-8226 leukemia
RXF 393 renal = test system: RXF 393 renal
RXF-631 renal = test system: RXF-631 renal
SF-268 CNS = test system: SF-268 CNS
SF-295 CNS = test system: SF-295 CNS
SF-539 CNS = test system: SF-539 CNS
SK-MEL-2 melanoma = test system: SK-MEL-2 melanoma
SK-MEL-28 melanoma = test system: SK-MEL-28 melanoma
SK-MEL-5 melanoma = test system: SK-MEL-5 melanoma
SK-OV-3 ovarian = test system: SK-OV-3 ovarian
SN12C renal = test system: SN12C renal
SNB-19 CNS = test system: SNB-19 CNS
SNB-75 CNS = test system: SNB-75 CNS
SW-620 colon = test system: SW-620 colon
TK-10 renal = test system: TK-10 renal
U251 CNS = test system: U251 CNS
UACC-257 melanoma = test system: UACC-257 melanoma
UACC-62 melanoma = test system: UACC-62 melanoma
UO-31 renal = test system: UO-31 renal
XF 498 CNS = test system: XF 498 CNS
COLO 205 colon = test system: COLO 205 colon
HCT-116 colon = test system: HCT-116 colon
LOX IMVI melanoma = test system: LOX IMVI melanoma
MALME-3M melanoma = test system: MALME-3M melanoma
OVCAR-3 ovarian = test system: OVCAR-3 ovarian
SR leukemia = test system: SR leukemia

CN(C)C(=Nc1nc(=[N+](C)C)ss1)N(C)C
TGI (786-0 renal): > 100 µM | TGI (A498 renal): > 100 µM | TGI (A549 NSCLC): > 100 µM | TGI (ACHN renal): > 100 µM | TGI (CAKI-1 renal): > 100 µM | TGI (CCRF-CEM leukemia): > 100 µM | TGI (DLD-1 colon): > 100 µM | TGI (DMS 114 small cell lung): > 100 µM | TGI (DMS 273 small cell lung): > 100 µM | TGI (EKVX NSCLC): > 100 µM | TGI (HCC-2998 colon): > 100 µM | TGI (HCT-15 colon): > 100 µM | TGI (HL-60(TB) leukemia): > 100 µM | TGI (HOP-18 NSCLC): > 100 µM | TGI (HOP-62 NSCLC): > 100 µM | TGI (HOP-92 NSCLC): > 100 µM | TGI (HT29 colon): > 100 µM | TGI (IGROV1 ovarian): > 100 µM | TGI (K-562 leukemia): > 100 µM | TGI (KM12 colon): > 100 µM | TGI (KM20L2 colon): > 100 µM | TGI (LXFL 529 NSCLC): > 100 µM | TGI (M14 melanoma): > 100 µM | TGI (M19-MEL melanoma): > 100 µM | TGI (MOLT-4 leukemia): > 100 µM | TGI (NCI-H226 lung): > 100 µM | TGI (NCI-H23 lung): > 100 µM | TGI (NCI-H460 lung): > 100 µM | TGI (NCI-H522 lung): > 100 µM | TGI (OVCAR-4 ovarian): > 100 µM | TGI (OVCAR-5 ovarian): > 100 µM | TGI (OVCAR-8 ovarian): > 100 µM | TGI (RPMI-8226 leukemia): > 100 µM | TGI (RXF 393 renal): > 100 µM | TGI (RXF-631 renal): > 100 µM | TGI (SF-268 CNS): > 100 µM | TGI (SF-295 CNS): > 100 µM | TGI (SF-539 CNS): > 100 µM | TGI (SK-MEL-2 melanoma): > 100 µM | TGI (SK-MEL-28 melanoma): > 100 µM | TGI (SK-MEL-5 melanoma): > 100 µM | TGI (SK-OV-3 ovarian): > 100 µM | TGI (SN12C renal): > 100 µM | TGI (SNB-19 CNS): > 100 µM | TGI (SNB-75 CNS): > 100 µM | TGI (SW-620 colon): > 100 µM | TGI (TK-10 renal): > 100 µM | TGI (U251 CNS): > 100 µM | TGI (UACC-257 melanoma): > 100 µM | TGI (UACC-62 melanoma): > 100 µM | TGI (UO-31 renal): > 100 µM | TGI (XF 498 CNS): > 100 µM

O=[N+]([O-])c1ccccc1S(=O)(=O)c1ccccc1
TGI (A498 renal): > 100 µM | TGI (A549 NSCLC): > 100 µM | TGI (ACHN renal): > 100 µM | TGI (CCRF-CEM leukemia): > 100 µM | TGI (COLO 205 colon): > 100 µM | TGI (DLD-1 colon): > 100 µM | TGI (DMS 114 small cell lung): > 100 µM | TGI (DMS 273 small cell lung): > 100 µM | TGI (EKVX NSCLC): > 100 µM | TGI (HCC-2998 colon): > 100 µM | TGI (HCT-116 colon): > 100 µM | TGI (HCT-15 colon): > 100 µM | TGI (HL-60(TB) leukemia): > 100 µM | TGI (HOP-18 NSCLC): > 100 µM | TGI (HOP-62 NSCLC): > 100 µM | TGI (HOP-92 NSCLC): > 100 µM | TGI (HT29 colon): > 100 µM | TGI (IGROV1 ovarian): > 100 µM | TGI (K-562 leukemia): > 100 µM | TGI (KM12 colon): > 100 µM | TGI (KM20L2 colon): > 100 µM | TGI (LOX IMVI melanoma): > 100 µM | TGI (LXFL 529 NSCLC): > 100 µM | TGI (M14 melanoma): > 100 µM | TGI (M19-MEL melanoma): > 100 µM | TGI (MALME-3M melanoma): > 100 µM | TGI (MOLT-4 leukemia): > 100 µM | TGI (NCI-H226 lung): > 100 µM | TGI (NCI-H23 lung): > 100 µM | TGI (NCI-H460 lung): > 100 µM | TGI (OVCAR-3 ovarian): > 100 µM | TGI (OVCAR-4 ovarian): > 100 µM | TGI (OVCAR-5 ovarian): > 100 µM | TGI (OVCAR-8 ovarian): > 100 µM | TGI (RPMI-8226 leukemia): > 100 µM | TGI (RXF 393 renal): > 100 µM | TGI (RXF-631 renal): 47 µM | TGI (SF-268 CNS): > 100 µM | TGI (SF-295 CNS): > 100 µM | TGI (SF-539 CNS): > 100 µM | TGI (SK-MEL-2 melanoma): > 100 µM | TGI (SK-MEL-28 melanoma): > 100 µM | TGI (SK-MEL-5 melanoma): > 100 µM | TGI (SK-OV-3 ovarian): > 100 µM | TGI (SN12C renal): > 100 µM | TGI (SNB-75 CNS): > 100 µM | TGI (SR leukemia): > 100 µM | TGI (SW-620 colon): > 100 µM | TGI (TK-10 renal): > 100 µM | TGI (U251 CNS): > 100 µM | TGI (UACC-257 melanoma): > 100 µM | TGI (UACC-62 melanoma): > 100 µM | TGI (UO-31 renal): 90.6 µM | TGI (XF 498 CNS): > 100 µM
